Experimental data: patent publication US20200230205A1, “COMPOSITIONS AND METHODS FOR TREATING MYELIN DISORDERS” (CASE WESTERN RESERVE UNIVERSITY, priority 2017, published 2020)

Columns and labels:
Type in all cases: cell-based, mouse
[1] = test system: OPC conditioned media protease activity; assay: Conditioned media protease activity assay (EnzChek, quenched casein); details: OPCs treated with 2.5 μM ISP, vs vehicle and SISP
Procedure: Around 1×10^6 OPCs were plated per well on PLL, 1 μg/mL laminin, and 2 μg/mL aggrecan coated 6-well plates and treated with vehicle, 2.5 μM ISP or SISP for 2 days at 37° C. CM was collected, cell-strained, and placed on ice until assayed. ThermoFisher Protease Assay Kit (E66383, EnzChek, ThermoFisher) was used to assay protease activity. 1× of the EnzChek mixture was mixed 1:1 with the CM from each group and incubated at RT O/N with gentle shaking. 3 replicates were performed for each sample. Samples were analyzed using a spectrophotometer at 502/528 nm excitation and emission to assess cleaved and fluorescing casein. Fluorescence units reported have been blanked with EnzChek and cell culture media mixture.

[2] = test system: MMP-10; assay: MMP-10 western blot of OPC conditioned media; details: OPC CM, 2.5 μM peptide, same as vehicle
Procedure: To assess MMP-2 or 10 in OPC CM or lysates, OPCs were incubated on precoated PLL, aggrecan, and laminin as described above. OPCs were treated with vehicle, 2.5 μM ISP or SISP for 2 days at 37° C. CM was then harvested and concentrated using Milipore Ultracel YM-C centrifugal filter units at max speed (Eppendorf Centrifuge […]) for 30 minutes at 4° C. […] of concentrated CM was loaded into each lane. OPC lysates were assessed using western blot techniques described below with […] protein loaded from each group. Tissue samples or cerebellar slices or purified OPC cells were homogenized with RIPA lysis buffer and protein concentration was determined by Pierce BCA protein assay kit according to the manufacture instruction (Thermo Fisher). Then, equal amounts of protein were loaded to 15% SDS-PAGE gels, and electrophoretically transferred to PVDF membranes (Millipore). The membranes were blocked in 0.1% TPBS buffer with 5% non-fat milk for 1h at room temperature and probed with indicated primary antibodies overnight at 4° C. and followed by secondary antibody conjugated to horseradish peroxidase (HRP). […] Enhanced chemiluminescence was performed with a West Pico Kit (Thermo Fisher) and detected by FluorChem E system (ProteinSimple, USA). The density of bands was quantified using ImageJ software (NIH).

[3] = test system: OPC secreted proteases; assay: Protease array screen of OPC conditioned media; details: OPC CM, 2.5 μM ISP for 4 div vs vehicle
Procedure: OPCs were cultured on 6-well plates for 4 div with vehicle control or 2.5 μM ISP treatment. Conditioned media was collected from each group and cell-strained before incubation with blot array provided in R & D Systems Protease Array Kit (ARY025). Instructions from kit were followed with overnight incubation of collected media at 4° C. Control and ISP blots were developed together with the same exposure time and pixel intensities of array was assess using ImageJ (NIH).

Sequence: GRKKRRQRRRCDMAEHMERLKANDSLKLSQEYESI [ISP]
- protease activity (fluorescence A.U.) [1]: increased protease activity
- MMP-10 secretion, western blot [2]: equally low amounts
- protease array signal for ADAMTS, Kallikreins, Cathepsins, MMPs [3]: increased signal
- protease array signal for Cathepsins L and V and MMP-10 (laminin degrading) [3]: reduced
